We go through 3 substances from patent US7208281B2 (priority 2001, dated 2007).

Read-outs that look alike come from different tables or passages of the source.

Test [1] has as its system PrPsc. To be noted: cited from earlier work.
The subject of the next test is prions. To be noted: cited from earlier work.
Test [2] relates to PrPsc.
Test [3] deals with PrPC (Bos taurus, UniProt P10279). As to conditions: fibronectin coupled with europium nanobeads, incubated with sample.
The test system of test [4] is PrPsc. The source holds these as a separate data set.
Test [5] addresses PrPC (Homo sapiens, UniProt P04156). To be noted: microtiter plate coated with fibronectin.

PrPC (Bos taurus, UniProt P10279), sequence (P10279 25-241 limits assumed): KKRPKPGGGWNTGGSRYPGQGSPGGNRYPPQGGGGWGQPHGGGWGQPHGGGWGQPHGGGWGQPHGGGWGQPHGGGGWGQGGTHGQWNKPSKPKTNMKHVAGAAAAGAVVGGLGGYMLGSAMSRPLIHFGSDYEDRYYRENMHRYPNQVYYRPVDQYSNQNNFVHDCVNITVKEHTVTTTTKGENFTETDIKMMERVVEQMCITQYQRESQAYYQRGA

plasminogen: the “binding of PrPsc” value with PrPsc [1] is on record as “binding specifically”.
As for “poly-b-xylose-2,3-disulphonate [Pentosan]”, the “inhibition of the production of prions” value in the test with prions is listed as “inhibits the production of prions most strongly”.
Consider fibronectin, for which the “adherence of pathological PrP (PrPsc)” value in the test on PrPsc [2] and in the test with PrPsc [4] was “adheres” each time. Besides, the “adherence of normal PrP (PrPc)” value at PrPC [3] and on PrPC [5] was “does not” throughout.
